Data as given in US11388902B2, “Pesticidally active cyclopropyl methyl amide derivatives” (SYNGENTA PARTICIPATIONS AG, priority 2017, dated 2022).

Experiments:
Format in all cases: in vivo
[1] = system: Thrips tabaci (Onion Thrips); assay: Thrips tabaci (onion thrips) feeding/contact activity, sunflower leaf discs; conditions: foliar, 144 h, application rate of 200 ppm, thrips population of mixed ages, 6 days after infestation
Description: Example B6: Thrips tabaci (Onion Thrips) Feeding/Contact Activity
(§1) Sunflower leaf discs were placed on agar in 24-well microtiter plates and sprayed with aqueous test solutions prepared from 10′000 ppm DMSO stock solutions. After drying the leaf discs were infested with a thrips population of mixed ages. The samples were assessed for mortality 6 days after infestation.

[2] = system: Plutella xylostella (Diamond Back Moth); assay: Plutella xylostella (diamond back moth) artificial diet test; conditions: 120 h, application rate of 200 ppm, L2 larvae, 5 days after infestation, in comparison to untreated samples, read-out: effect in at least one of the two categories (mortality or growth inhibition)
Description: Example B3: Plutella xylostella (Diamond Back Moth)
(§2) 24-well microtiter plates with artificial diet were treated with aqueous test solutions prepared from 10′000 ppm DMSO stock solutions by pipetting. After drying, the plates were infested with L2 larvae (10 to 15 per well). The samples were assessed for mortality and growth inhibition in comparison to untreated samples 5 days after infestation.

[3] = system: Diabrotica balteata (Corn Root Worm); assay: Diabrotica balteata (corn root worm) on sprayed maize sprouts; conditions: 96 h, application rate of 200 ppm, L2 larvae, 4 days after infestation, in comparison to untreated samples, read-out: effect in at least one of the two categories (mortality or growth inhibition)
Description: Example B1: Diabrotica balteata (Corn Root Worm)
as §2, with “Maize sprouts placed onto an agar layer in 24-well” for “24-well”, “plates” for “plates with artificial diet”, “spraying.” for “pipetting.”, “(6” for “(10”, “10” for “15”, “4” for “5”

[4] = system: Myzus persicae (Green Peach Aphid); assay: Myzus persicae (green peach aphid) sucrose solution feeding test; conditions: 120 h, test rate of 12 ppm, 5 days after infestation
Description: Example B2: Myzus persicae (Green Peach Aphid)
Test compounds prepared from 10′000 ppm DMSO stock solutions were applied by pipette into 24-well microtiter plates and mixed with sucrose solution. The plates were closed with a stretched Parafilm. A plastic stencil with 24 holes was placed onto the plate and infested pea seedlings were placed directly on the Parafilm. The infested plate was closed with a gel blotting paper and another plastic stencil and then turned upside down. The samples were assessed for mortality 5 days after infestation.

[5] = system: Spodoptera littoralis (Egyptian Cotton Leaf Worm); assay: Spodoptera littoralis (Egyptian cotton leaf worm) cotton leaf disc test; conditions: foliar, 72 h, application rate of 200 ppm, L1 larvae, 3 days after infestation, in comparison to untreated samples, read-out: control (mortality, anti-feeding effect, or growth inhibition)
Description: Example B4: Spodoptera littoralis (Egyptian Cotton Leaf Worm)
Cotton leaf discs were placed onto agar in 24-well microtiter plates and sprayed with aqueous test solutions prepared from 10′000 ppm DMSO stock solutions. After drying the leaf discs were infested with five L1 larvae. The samples were assessed for mortality, anti-feeding effect, and growth inhibition in comparison to untreated samples 3 days after infestation. Control of Spodoptera littoralis by a test sample is given when at least one of the categories mortality, anti-feedant effect, and growth inhibition is higher than the untreated sample.

[6] = system: Tetranychus urticae (Two-Spotted Spider Mite); assay: Tetranychus urticae (two-spotted spider mite) feeding/contact activity, bean leaf discs; conditions: foliar, 192 h, application rate of 200 ppm, 8 days after infestation, read-out: mortality on mixed population (mobile stages)
Description: Example B5: Tetranychus urticae (Two-Spotted Spider Mite):Feeding/Contact Activity
as §1, with “Bean” for “Sunflower”, “discs” for “discs were placed”, “were” for “and”, “mite” for “thrips”, “on mixed population (mobile stages) 8” for “6”

N#CC1(CNC(=O)c2ccc(C3=NOC(c4cc(Cl)cc(Cl)c4)(C(F)(F)F)C3)cn2)CC1 (racemic) [Compound D01, N-[(1-cyanocyclopropyl)methyl]-5-[5-(3,5-dichlorophenyl)-5-(trifluoromethyl)-4H-isoxazol-3-yl]pyridine-2-carboxamide]
≥ 80%: mortality at 200 ppm [1] | percent effect (mortality or growth inhibition) at 200 ppm [2] | percent effect (mortality or growth inhibition) at 200 ppm [3]

Cc1cc(C2=NOC(c3cc(Cl)cc(Cl)c3)(C(F)(F)F)C2)ncc1C(=O)NCC1(C#N)CC1 (racemic) [Compound D02, N-[(1-cyanocyclopropyl)methyl]-6-[5-(3,5-dichlorophenyl)-5-(trifluoromethyl)-4H-isoxazol-3-yl]-4-methyl-pyridine-3-carboxamide]
≥ 80%: mortality at 12 ppm [4] | mortality at 200 ppm [1] | percent effect (mortality or growth inhibition) at 200 ppm [2] | percent effect (mortality or growth inhibition) at 200 ppm [3] | percent control (mortality, anti-feedant effect or growth inhibition) at 200 ppm [5] | mortality at 200 ppm [6]

Cc1cc(C2=NO[C@@](c3cc(Cl)c(F)c(Cl)c3)(C(F)(F)F)C2)ccc1C(=O)NCC1(C#N)CC1 [Compound A01, N-[(1-cyanocyclopropyl)methyl]-4-[(5S)-5-(3,5-dichloro-4-fluoro-phenyl)-5-(trifluoromethyl)-4H-isoxazol-3-yl]-2-methyl-benzamide]
≥ 80%: mortality at 12 ppm [4] | mortality at 200 ppm [1] | percent effect (mortality or growth inhibition) at 200 ppm [2] | percent effect (mortality or growth inhibition) at 200 ppm [3] | percent control (mortality, anti-feedant effect or growth inhibition) at 200 ppm [5] | mortality at 200 ppm [6]

Cc1cc(C2=NO[C@@](c3cc(Cl)c(F)c(Cl)c3)(C(F)(F)F)C2)ccc1C(=O)NCC1(C(N)=S)CC1 [Compound B01, N-[(1-carbamothioylcyclopropyl)methyl]-4-[(5S)-5-(3,5-dichloro-4-fluoro-phenyl)-5-(trifluoromethyl)-4H-isoxazol-3-yl]-2-methyl-benzamide]
≥ 80%: mortality at 12 ppm [4] | mortality at 200 ppm [1] | percent effect (mortality or growth inhibition) at 200 ppm [2] | percent effect (mortality or growth inhibition) at 200 ppm [3] | percent control (mortality, anti-feedant effect or growth inhibition) at 200 ppm [5] | mortality at 200 ppm [6]

Cc1cc(C2=NO[C@@](c3cc(Cl)c(F)c(Cl)c3)(C(F)(F)F)C2)ccc1C(=O)NCC1(C(N)=O)CC1 [Compound C01, N-[(1-carbamoylcyclopropyl)methyl]-4-[(5S)-5-(3,5-dichloro-4-fluoro-phenyl)-5-(trifluoromethyl)-4H-isoxazol-3-yl]-2-methyl-benzamide]
≥ 80%: mortality at 12 ppm [4] | mortality at 200 ppm [1] | percent effect (mortality or growth inhibition) at 200 ppm [2] | percent effect (mortality or growth inhibition) at 200 ppm [3] | percent control (mortality, anti-feedant effect or growth inhibition) at 200 ppm [5] | mortality at 200 ppm [6]

Cc1cc(C2=NO[C@@](c3cc(Cl)c(F)c(Cl)c3)(C(F)(F)F)C2)ccc1C(=O)NC(C)C1(C#N)CC1 (stereo partly drawn) [Compound E01, N-[1-(1-cyanocyclopropyl)ethyl]-4-[(5S)-5-(3,5-dichloro-4-fluoro-phenyl)-5-(trifluoromethyl)-4H-isoxazol-3-yl]-2-methyl-benzamide]
≥ 80%: mortality at 200 ppm [1] | percent effect (mortality or growth inhibition) at 200 ppm [2] | percent control (mortality, anti-feedant effect or growth inhibition) at 200 ppm [5]

CCOC(=O)N(CC1(C#N)CC1)C(=O)c1ccc(C2=NO[C@@](c3cc(Cl)c(F)c(Cl)c3)(C(F)(F)F)C2)cc1C [Compound F01, ethyl N-[(1-cyanocyclopropyl)methyl]-N-[4-[(5S)-5-(3,5-dichloro-4-fluoro-phenyl)-5-(trifluoromethyl)-4H-isoxazol-3-yl]-2-methyl-benzoyl]carbamate]
≥ 80%: mortality at 200 ppm [1] | percent effect (mortality or growth inhibition) at 200 ppm [2] | percent effect (mortality or growth inhibition) at 200 ppm [3] | percent control (mortality, anti-feedant effect or growth inhibition) at 200 ppm [5] | mortality at 200 ppm [6]
